These results are taken from patent US10654867B2 (Genentech, Inc., priority 2016, dated 2020).

The target in the test is T1, estrogen receptor alpha (ESR1) in MCF7 breast cancer cells (Homo sapiens, UniProt P03372).
T1 sequence (P03372 1-595): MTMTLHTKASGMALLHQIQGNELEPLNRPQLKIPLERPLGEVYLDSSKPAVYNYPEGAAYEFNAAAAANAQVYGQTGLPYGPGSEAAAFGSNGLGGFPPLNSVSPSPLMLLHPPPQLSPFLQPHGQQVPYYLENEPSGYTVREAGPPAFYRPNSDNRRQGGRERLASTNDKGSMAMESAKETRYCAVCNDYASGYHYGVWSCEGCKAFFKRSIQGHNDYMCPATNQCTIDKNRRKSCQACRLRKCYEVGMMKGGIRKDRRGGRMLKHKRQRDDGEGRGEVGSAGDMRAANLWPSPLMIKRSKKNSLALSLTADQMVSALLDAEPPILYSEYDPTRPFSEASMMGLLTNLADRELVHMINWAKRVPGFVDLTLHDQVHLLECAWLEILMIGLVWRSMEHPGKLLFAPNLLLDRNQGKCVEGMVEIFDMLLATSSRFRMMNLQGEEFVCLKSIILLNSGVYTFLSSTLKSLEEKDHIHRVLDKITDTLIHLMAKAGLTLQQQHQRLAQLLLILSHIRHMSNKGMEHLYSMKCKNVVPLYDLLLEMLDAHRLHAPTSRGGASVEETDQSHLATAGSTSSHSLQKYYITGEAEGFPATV
The test is described as follows: Breast Cancer Cell ERa High Content Fluorescence Imaging Degradation Assay (ER-alpha MCF7 HCS). The test is classed as cell-based. Also on record: endogenous in cells; host or cells: MCF7 breast cancer cells. The following applies: 4 hours, plateau of the maximal effect, DMSO and fulvestrant define 0% and 100% change in ESR1, Table 1a. As for the experimental part:
All of the exemplary Formula I, II, and III compounds in Tables 1a and 1b were made and characterized by LCMS [M+H]^+ (liquid chromatography mass spectroscopy) with detection of parent ion. All of the exemplary Formula I, II, and III compounds in Tables 1a and 1b were tested for binding to ERa (Estrogen Receptor alpha) and biological activity according to the assays, protocols, and procedures of Examples 901-907. ER-alpha MCF7 HCS Sinf (%) values in Tables 1a and 1b were measured by the Breast Cancer Cell ERa High Content Fluorescence Imaging Degradation Assay of Example 901. ER-alpha MCF7 HCS EC50 (μM) values in Tables 1a and 1b were measured by the in vitro cell proliferation assays described in Examples 902 and 903. The rat uterine wet weight assays of Examples 906 and 907 allow rapid determination of compound antagonist activity in an ER responsive tissue (immature rat uterus) while competing against the native ER ligand estradiol, i.e. antagonist mode (Ashby, J.; et al (1997) Regulatory toxicology and pharmacology: RTP, 25 (3):226-31). Exemplary Formula I, II, and III compounds in Tables 1a and 1b have the following structures, corresponding names (ChemBioDraw, Version 12.0.2, CambridgeSoft Corp., Cambridge Mass.), and biological activity. Where more than one name is associated with a Formula I, II, and III compound or intermediate, the chemical structure shall define the compound.
MCF7 breast cancer cells were seeded on day 1 at a density of 10,000 cells per well in 384 well poly-lysine coated tissue culture plate (Greiner # T-3101-4), in 50 μL/well RPMI (phenol red free), 10% FBS (Charcoal stripped), containing L-glutamine. On day 2, compounds were prepared at 2 compound source concentrations: 100 μM and 1 μM (ultimately to give 2 overlapping titration curves), in a Labcyte low dead volume plate, 10 μL/well, and 10 μL of DMSO in designated wells for backfill, and 5 μM Fulvestrant (control compound) in designated wells. Compounds and controls were dispensed using a Labcyte Echo acoustic dispenser to dispense compounds with a predefined serial dilution (1.8×, 10 point, in duplicate) and appropriate backfill and control compounds (final total volume transferred was 417.5 nL and compound dispense volume ranges from 2.5 nL to 417.5 nL; 0.84% DMSO (v/v) final), ultimately producing a concentration range from 0.05 nM to 835 nM. Cell plates were incubated at 37° C., for 4 hours. Fixation and permeabilization were carried out using a Biotek EL406 plate washer and dispenser as follows. Cells were fixed by addition of 15 μL of 16% paraformaldehyde (Electron Microscopy Sciences #15710-S) directly to the 50 μL cell culture medium in each well using the peristaltic pump 5 μL cassette on a Biotek EL406 (final concentration of formaldehyde was 3.7% w/v). Samples were incubated 30 minutes. Well contents was aspirated and 50 μL/well of Phosphate Buffered Saline (PBS) containing 0.5% w/v bovine serum albumen, 0.5% v/v Triton X-100 (Antibody Dilution Buffer) was added to each well. Samples were incubated for 30 minutes. Well contents were aspirated and washed 3 times with 100 μL/well of PBS. Immunofluorescence staining of estrogen receptor alpha (ESR1) was carried out using a Biotek EL406 plate washer and dispenser as follows. The well supernatant was aspirated from the wells and 25 μL/well of anti-ESR1 mAb (F10) (Santa Cruz sc-8002) diluted 1:1000 in Antibody Dilution Buffer was dispensed. Samples were incubated for 2 hours at room temperature. Samples were washed 4 times with 100 μL/well of PBS. 25 uL (microliters)/well of secondary antibody solution (Alexafluor 488 conjugate anti-mouse IgG (LifeTechnologies # A21202) diluted 1:1000 and Hoechst 33342 1 μg/ml diluted in Antibody Dilution Buffer) were dispensed into each well. Samples were incubated for 2 hours at room temperature. Samples were washed 3 times with 100 μL/well of PBS using a Biotek EL406. Quantitative fluorescence imaging of ESR1 was carried out using a Cellomics Arrayscan V (Thermo). […]

As to `C[C@@H]1Cn2c(cc3ccccc32)[C@@H](c2c(F)cc(NC3CN(CCCF)C3)cc2F)N1CC(C)(C)F` [Example 127, N-(3,5-Difluoro-4-((1R,3R)-2-(2-fluoro-2-methylpropyl)-3-methyl-1,2,3,4-tetrahydropyrazino[1,2-a]indol-1-yl)phenyl)-1-(3-fluoropropyl)azetidin-3-amine], the “ER-alpha MCF7HCS Sinf” value is given as −100%. `C[C@@H]1Cc2sc3ccccc3c2[C@@H](c2ccc(OCCN3CC(CF)C3)cc2)N1CC(C)(C)F` [Example 128, (1R,3R)-2-(2-fluoro-2-methylpropyl)-1-(4-(2-(3-(fluoromethyl)azetidin-1-yl)ethoxy)phenyl)-3-methyl-1,2,3,4-tetrahydrobenzo[4,5]thieno[3,2-c]pyridine]: the “ER-alpha MCF7HCS Sinf” value is reported as −101%.

Consider `C[C@H]1Cc2sc3ccccc3c2[C@H](c2ccc(OCCN3CC(CF)C3)cc2)N1CC(C)(C)F` [Example 129, (1S,3S)-2-(2-Fluoro-2-methylpropyl)-1-(4-(2-(3-(fluoromethyl)azetidin-1-yl)ethoxy)phenyl)-3-methyl-1,2,3,4-tetrahydrobenzo[4,5]thieno[3,2-c]pyridine], for which the “ER-alpha MCF7HCS Sinf” value is on record as −43.8%. The figure for `C[C@H]1Cc2sc3ccccc3c2[C@@H](c2ccc(OCCN3CC(CF)C3)cc2)N1CC(C)(C)F` [Example 131, (1R,3S)-2-(2-fluoro-2-methylpropyl)-1-(4-(2-(3-(fluoromethyl)azetidin-1-yl)ethoxy)phenyl)-3-methyl-1,2,3,4-tetrahydrobenzo[4,5]thieno[3,2-c]pyridine] is −99%; for `C[C@@H]1Cc2c([nH]c3cccnc23)[C@@H](c2c(F)cc(OC3CN(CCCF)C3)cc2F)N1CC(C)(C)F` [Example 133, (6R,8R)-6-{2,6-Difluoro-4-[2-(3-fluoromethyl-azetidin-1-yl)-ethoxy]-phenyl}-7-(2-fluoro-2-methyl-propyl)-8-methyl-6,7,8,9-tetrahydro-5H-dipyrido[3,2-b;4′,3′-d]pyrrole] it is −94.5%; for `C[C@@H]1Cc2c([nH]c3ccccc23)[C@]2(CCc3nc(OCCN4CC(CF)C4)ccc32)N1CC(F)(F)F` [Example 134, (3′R,5R)-2-(2-(3-(fluoromethyl)azetidin-1-yl)ethoxy)-3′-methyl-2′-(2,2,2-trifluoroethyl)-2′,3′,4′,6,7,9′-hexahydrospiro [cyclopenta[b]pyridine-5,1′-pyrido [3,4-b]indole]] it is −96.5%.

Consider `C[C@@H]1Cc2c([nH]c3ccccc23)[C@@](C)(c2ccc(OCCN3CC(CF)C3)cc2)N1CC(C)(C)F` [Example 135, (1R,3R)-2-(2-Fluoro-2-methylpropyl)-1-(4-(2-(3-(fluoromethyl)azetidin-1-yl)ethoxy)phenyl)-1,3-dimethyl-2,3,4,9-tetrahydro-1H-pyrido[3,4-b]indole], for which the “ER-alpha MCF7HCS Sinf” value was −95%. In the case of `C[C@@H]1Cc2[nH]c3ccccc3c2[C@@H](c2c(F)cc(OCCN3CC(CF)C3)cc2F)N1CC(C)(C)F` [Example 137, (1S,3R)-1-(2,6-difluoro-4-(2-(3-(fluoromethyl)azetidin-1-yl)ethoxy)phenyl)-2-(2-fluoro-2-methylpropyl)-3-methyl-2,3,4,5-tetrahydro-1H-pyrido[4,3-b]indole], the “ER-alpha MCF7HCS Sinf” value is −94.2%. As for `CC(C)(F)CN1[C@H](c2c(F)cc(OCCN3CC(CF)C3)cc2F)c2[nH]c3ccccc3c2[C@H]2CC[C@H]21` [Example 138, (2aR,4R,9cR)-4-(2,6-difluoro-4-(2-(3-(fluoromethyl)azetidin-1-yl)ethoxy)phenyl)-3-(2-fluoro-2-methylpropyl)-2,2a,3,4,5,9c-hexahydro-1H-cyclobuta[5,6]pyrido[3,4-b]indole], the “ER-alpha MCF7HCS Sinf” value is recorded as −68%.

In the case of `C[C@@H]1Cc2c([nH]c3ccccc23)[C@]2(Cc3ccc(OC4CN(CCCF)C4)cc3C2)N1CC(F)(F)F` [Example 140], the “ER-alpha MCF7HCS Sinf” value was −15%.
